Laboratory results as given in patent US4119730A, “Treating muscle spasms” (Chimicasa GmbH, priority 1976, dated 1978).
Values after ≈ are worked out from the molar mass of the structure shown. Like-named read-outs stand apart in the source and are kept apart here. Values belong to the compound of their own block, whether it stands above or below them.

Key:
[1] = system: bladder; assay: cystometric measuring of the damping of the increase of the bladder tonus caused by a spasmogenic agent (carbachol); type: in vivo, human
Experimental: The effectiveness test is performed by cystometric measuring of the damping of the increase of the bladder tonus caused by the antispasmodic agent after intravesical administration of a spasmogenic agent as follows:
The bladder capacity (BC) of several human subjects with indwelling permanent catheters is measured by filling the bladders with water warmed to 37° C. The maximum micturition pressure (MM) in the case of the filled bladder is measured. The bladder is then emptied and filled again with warm, clean water to half the capacity measured previously (1/2 BC) and the pressure P1 in the case of the half-filled bladder is measured. The bladder is again emptied and filled again to half its capacity with a solution 1. […] The pressure P2 for half its capacity is measured. […] 30 minutes thereafter the emptied bladder is filled with water, warmed to 37° C. to half its capacity and the pressure P3 is measured. The bladder is subsequently emptied and filled to half its capacity with the solution 1 and the pressure P4 is measured. Fifteen minutes later, the bladder is emptied again and filled to half its capacity with water, warmed to 37° C. and the pressure P5 is measured. Directly thereafter, the bladder is emptied and filled to half its capacity with solution 1 and the pressure P6 is measured. […]

[2] = system: isolated guinea pig intestine; assay: inhibition of histamine-induced contraction of isolated guinea pig intestine; details: Cavia porcellus, 2 min, read-out: ED50 (concentration of agent per liter of bath liquid which inhibits the contraction of the intestine by 50%)
Experimental: The antispasmodic effect of the compounds (I) could not be expected from a study of their structure alone. Their effectiveness has been measured in a pharmacological standard test as follows:
Several 3 cm-long pieces of an isolated guinea pig intestine were stretched under a load of 0.5 g in separate baths. In all baths, the bath liquid was Tyrode's solution, warmed to 32° C. A first contraction of the pieces of intestine was produced in each case by adding 0.5 mg (milligram) of histamine chloride per liter of bath liquid. he reduction in length caused by the first contraction was measured 2 min (minutes) after adding the histamine chloride.
The bath liquids were then renewed and, after relaxation of the first contraction, the agent under test, dissolved in propylene glycol, was added to the bath liquids and 2 min later 0.5 mg. of histamine chloride per liter of bath liquid was again added. A second contraction was thereby produced and the reduction in length caused by this was measured 2 min after the addition of the histamine chloride. […] The concentrations (ED50) of agent per liter of bath liquid, which inhibit the contraction of the intestine by 50% were determined (ED50 = effective dose to inhibit for 50%).

[3] = cited from earlier work
[4] = 0.5 mg histamine chloride per liter, Tyrode's solution, 32° C.

SMILES: C=CCc1ccc(OC)c(OC)c1 [1-Allyl-3,4-dimethoxybenzene]
effectiveness on humans ([1]; rectal): effectiveness | IC50 [2]: 11.8 µg/mL (≈ 66.2 µM)

SMILES: CC=Cc1ccc(OC(C)=O)c(OC)c1 [2-Methoxy-4-propenylphenyl acetate]
IC50 [2]: 52 µg/mL

SMILES: COc1ccc(Cc2nccc3cc(OC)c(OC)cc23)cc1OC [Papaverine]
non-specific actions ([3]; in vivo): observed | activity in animal experiments ([3]; prior art): very active in animal experiments | activity when used on humans ([3]; prior art): its activity is insufficient | dosage required in severe spasms relative to lethal dose ([3]; prior art, lethal dose from animal experiments): very high dosages, near the lethal dose

SMILES: CN1[C@@H]2CC[C@H]1C[C@@H](OC(=O)C(CO)c1ccccc1)C2 (stereo partly drawn) [atropine]
drug dependence ([3]; especially with long term treatment, prior art): drug dependence can occur | side effects associated with use ([3]; known antispasmodic, prior art): inducement of sleepiness, mental confusion and a state of inattentiveness

Second part, led by results:

IC50 [2, 4]: 27 µg/mL (≈ 151 µM)
SMILES: CC=Cc1ccc(OC)c(OC)c1 [3,4-Dimethoxy-propenylbenzol]

IC50 [2, 4]: 25 µg/mL
SMILES: C=CCc1ccc(OC(C)=O)c(OC)c1 [4-Allyl-2-methoxyphenyl acetate]
effectiveness on humans ([1]; rectal or oral): effectiveness

IC50 [2, 4]: 160 µg/mL (≈ 596 µM)
SMILES: C=CCc1ccc(OC(=O)c2ccccc2)c(OC)c1 [4-Allyl-2-methoxyphenyl benzoate]

IC50 [2, 4]: 14.5 µg/mL (≈ 61.9 µM)
SMILES: C=CCc1ccc(OC(=O)CCC)c(OC)c1 [4-Allyl-2-methoxyphenyl butanoate]

IC50 [2, 4]: 44.6 µg/mL (≈ 180 µM)
SMILES: C=CCc1ccc(OC(=O)CCCC)c(OC)c1 [4-Allyl-2-methoxyphenyl valerate]
